The test system of one series is KB cells. The series can be described thus: In Vitro KB Cell Cytotoxicity Assay (crystal violet). Conditions: Homo sapiens, 72 h, read-out: Cytotoxicity TD50 KB. Type of series: cell-based. How it is done:
KB cells were cultivated in Eagles minimum essential medium supplemented with 10% calf serum and incubated at 37° C. in a humidified 5% CO2 atmosphere to prepare a cell stock. Cells were counted using a neubauer hemocytometer and seeded in 96 well plates at 100 μl of 3×10^4 cells/ml and cultured for one day. […] Control wells were identical except that test compound was absent. These were cultured for three days. […] Then stained with 100 μl of 0.05% crystal violet for 15 minutes, washed with water and dried. The wells were eluted with 100 μl of 0.05M NaH2 PO4 /ethanol (1:1 v/v) and read at OD540 on a multiscan spectrophotometer. TD50 values were calculated using the following formula.

A further series relates to Sarcoma 180. The series can be described thus: In Vivo Antitumor Activity Against Sarcoma 180. Conditions: for Mortality in 12 days: i.p., days 1, 5 and 9.
Where [1] appears, read: Mus musculus, Sarcoma-180, ip, 288 h, read-out: % Inhibition of tumor growth.

Values after ≈ are worked out from the molar mass of the structure shown.

Description for Sarcoma 180: Sarcoma 180, 5×10^6 cells were inoculated by S.C. to male ICR mice (6 weeks old) on day 0. Drugs were administered on days 1, 5 and 9. Mice were killed and tumor weight was measured on day 12 after transplantation. The percentage inhibition of tumor growth was calculated from the mean tumor weight of the treated group compared with that of the control group. Number of mice used in each group was between 6 to 10.

Regarding `CC(C)C(=O)OC[C@H]1CN2C(=O)C[C@@H]2O1` (racemic) [compound 9, (3RS, 5SR)-3-(2-Methylpropionyloxymethyl)-4-oxa-1-azabicyclo [3,2,0]heptan-7-one], the CC50 in the series on KB cells worked out at 0.4 µg/mL (≈ 1.88 µM). On to `C#CCCC(=O)OC[C@H]1CN2C(=O)C[C@@H]2O1` (racemic) [compound 17, (3RS, 5SR)-3-(4-Pentynoyloxymethyl)-4-oxa-1-azabicyclo [3,2,0]heptan-7-one], for which the CC50 in the series on KB cells was determined as 0.27 µg/mL (≈ 1.21 µM).

`O=C(OC[C@H]1CN2C(=O)C[C@@H]2O1)c1ccccc1` (racemic) [compound 18, (3RS, 5SR)-3-Benzoyloxymethyl-4-oxa-1-azabicyclo[3,2,0]heptan-7-one]: the CC50 in the series on KB cells was found to be 5 µg/mL (≈ 20.2 µM).

For the molecule `O=C([O-])c1ccccc1C(=O)OC[C@H]1CN2C(=O)C[C@@H]2O1.[Na+]` (racemic) [compound 25, Sodium (3RS, 5SR)-2-[(4-oxa-1-azabicyclo [3,2,0]heptan-7-one-3-yl)methyloxycarbonyl]benzoate], the CC50 in the series on KB cells was 1.5 µg/mL. Besides, the “Mortality in 12 days” value with Sarcoma 180 (100 mg/kg/day) is recorded as 2/6. For the same molecule, the inhibition in vivo at 100 mg/kg in the series with Sarcoma 180 (setting [1]) amounted to 44.1%.

Regarding `O=C(CC(O)C(=O)OC[C@H]1CN2C(=O)C[C@@H]2O1)OC[C@H]1CN2C(=O)C[C@@H]2O1` (mixture of isomers) [compound 28, Bis [(3RS, 5SR)-(4-oxa-1-azabicyclo[3,2,0]heptan-7-one-3-yl)-methyl]-2-hydroxysuccinate], in the series with KB cells, the CC50 is 0.3 µg/mL (≈ 0.781 µM). Take `O=C(OC[C@H]1CN2C(=O)C[C@@H]2O1)C(O)C(O)C(=O)OC[C@H]1CN2C(=O)C[C@@H]2O1` (mixture of isomers) [compound 29, Bis [(3RS, 5SR)-(4-oxa-1-azabicyclo[3,2,0]heptan-7-one-3-yl)-methyl]-2,3-dihydroxysuccinate]: the CC50 in the series with KB cells amounted to 0.3 µg/mL (≈ 0.749 µM). For the molecule `O=C(OC[C@H]1CN2C(=O)C[C@@H]2O1)c1ccc(F)cc1` (racemic) [compound 31, (3RS, 5SR)-3-(4-Fluorobenzoyloxymethyl)-4-oxa-1-azabicyclo [3,2,0]heptan-7-one], the CC50 with KB cells came to 0.4 µg/mL (≈ 1.51 µM). Also, in the series on Sarcoma 180 (12.5 mg/kg/day), the “Mortality in 12 days” value was 0/7. Further, in the series with Sarcoma 180 (25 mg/kg/day), the “Mortality in 12 days” value is recorded as 0/7. In the series with Sarcoma 180 (setting [1]), the inhibition in vivo at 12.5 mg/kg is 53.2% and the inhibition in vivo at 25 mg/kg is 69.4%.

With `O=C(OC[C@H]1CN2C(=O)C[C@@H]2O1)c1cc(F)c(F)cc1F` (racemic) [compound 32, (3RS, 5SR)-3-(2,4,5-Trifluorobenzoyloxymethyl)-4-oxa-1-azabicyclo[3,2,0]heptan-7-one], the CC50 in the series on KB cells worked out at 0.3 µg/mL (≈ 0.996 µM). For `Nc1ccc(C(=O)OC[C@H]2CN3C(=O)C[C@@H]3O2)cc1` (racemic) [compound 34, (3RS, 5SR)-3-(4-Aminobenzoyloxymethyl)-4-oxa-1-azabicyclo [3,2,0]heptan-7-one], the CC50 in the series on KB cells amounted to 0.4 µg/mL (≈ 1.53 µM). For `COc1cc(C(=O)OC[C@H]2CN3C(=O)C[C@@H]3O2)cc(OC)c1O` (racemic) [compound 35, (3RS, 5SR)-3-(4-Hydroxy-3,5-dimethoxybenzoyloxymethyl)-4-oxa-1-azabicyclo [3,2,0]heptan-7-one], the CC50 with KB cells worked out at 0.8 µg/mL (≈ 2.47 µM).

Regarding `O=C1C[C@@H]2O[C@@H](CSCc3ccccc3)CN12` (racemic) [compound 41, (3RS,5SR)-3-Benzylthiomethyl-4-oxa-1-azabicyclo[3,2,0]heptan-7-one], the CC50 with KB cells came out at 5 µg/mL (≈ 20.1 µM). The “Mortality in 12 days” value in the series with Sarcoma 180 (6.25 mg/kg/day) was 0/6. Also, the inhibition in vivo at 6.25 mg/kg with Sarcoma 180 (setting [1]) was determined as 17.1%.

For `O=C1C[C@@H]2O[C@@H](CS(=O)(=O)Cc3ccccc3)CN12` (racemic) [compound 43, (3RS, 5SR)-3-Benzylsulfonylmethyl-4-oxa-1-azabicyclo[3,2,0]heptan-7-one], the CC50 in the series on KB cells amounted to 0.5 µg/mL (≈ 1.78 µM). The “Mortality in 12 days” value in the series on Sarcoma 180 (12.5 mg/kg/day) was 0/6. In addition, in the series on Sarcoma 180 (setting [1]), the inhibition in vivo at 12.5 mg/kg turned out to be 19.5%. As to `O=C1C[C@@H]2O[C@@H](CSc3ccccc3)CN12` (racemic) [compound 44, (3RS, 5SR)-3-Phenylthiomethyl-4-oxa-1-azabicyclo[3,2,0]heptan-7-one], in the series with KB cells, the CC50 worked out at 3 µg/mL (≈ 12.7 µM).

`O=C1C[C@@H]2O[C@@H](CS(=O)(=O)c3ccccc3)CN12` (racemic) [compound 46, (3RS, 5SR)-3-Phenylsulfonylmethyl-4-oxa-1-azabicyclo[3,2,0]heptan-7-one]: the CC50 with KB cells amounted to 2 µg/mL (≈ 7.48 µM). In the case of `O=C1C[C@@H]2O[C@H](CCO)CN12` (racemic) [compound 50, (3RS, 5SR)-3-Hydroxyethyl-4-oxa-1-azabicyclo[3,2,0]heptan-7-one], the CC50 in the series with KB cells came out at 0.7 µg/mL (≈ 4.45 µM). For the same molecule, the “Mortality in 12 days” value with Sarcoma 180 (50 mg/kg/day) is recorded as 0/6. In addition, the inhibition in vivo at 50 mg/kg with Sarcoma 180 (setting [1]) was 65.3%.

Take `Cc1ccc(S(=O)(=O)C[C@H]2CN3C(=O)C[C@@H]3O2)cc1` (racemic) [compound 51, (3RS, 5SR)-3-(4-Methylbenzenesulfonyl)methyl-4-oxa-1-azabicyclo[3,2,0]heptan-7-one]: in the series on KB cells, the CC50 came to 1 µg/mL (≈ 3.55 µM). Still for that read-out and setting: with `CC(C)CC(=O)OC[C@H]1CN2C(=O)C[C@@H]2O1` (relative stereo) [compound 10, (3RS, 5SR)-3-Methylbutyryloxymethyl-4-oxa-1-azabicyclo [3,2,0]heptan-7-one] the figure was 0.25 µg/mL (≈ 1.1 µM); with `CC(C)CCC(=O)OC[C@H]1CN2C(=O)C[C@@H]2O1` (relative stereo) [compound 11], 0.4 µg/mL (≈ 1.66 µM). Same read-out and setting: with `CCCCC(C)C(=O)OC[C@H]1CN2C(=O)C[C@@H]2O1` (relative stereo) [compound 12] the figure was 0.4 µg/mL (≈ 1.57 µM); with `Cc1cc(C)c(C(=O)OC[C@H]2CN3C(=O)C[C@@H]3O2)c(C)c1` (relative stereo) [compound 19], 2 µg/mL (≈ 6.91 µM). Same read-out and setting: with `O=C(OC[C@H]1CN2C(=O)C[C@@H]2O1)c1ccc(O)c(O)c1` (relative stereo) [compound 22] the figure was 2.5 µg/mL (≈ 8.95 µM); with `O=C(O)C1CCCCC1C(=O)OC[C@H]1CN2C(=O)C[C@@H]2O1` (relative stereo) [compound 24, Sodium (3RS, 5SR)-2-(4-oxa-1-azabicyclo [3,2,0]heptan-7-one-3-methyloxycarbonyl)cyclohexyl-2-carboxylate], 0.7 µg/mL. With `O=C(O)CCC(=O)OC[C@H]1CN2C(=O)C[C@@H]2O1` (relative stereo) [compound 26], the CC50 in the series on KB cells was 9.8 µg/mL (≈ 40.3 µM). On the same count and under the same terms, to `O=C(O)/C=C/C(=O)OC[C@H]1CN2C(=O)C[C@@H]2O1` (relative stereo) [compound 27, Sodium [(3RS, 5SR)-(4-oxa-1-azabicyclo[3,2,0]heptan-7-one-3-yl)methyl]fumarate] belongs 2.4 µg/mL; to `N#Cc1ccc(C(=O)OC[C@H]2CN3C(=O)C[C@@H]3O2)cc1` (relative stereo) [compound 33, (3RS, 5SR)-3-(4-Cyanobenzoyloxyymethyl)-4-oxa-1-azabicyclo [3,2,0]heptan-7-one], 0.3 µg/mL (≈ 1.1 µM). For the molecule `COc1ccc(COC[C@H]2CN3C(=O)C[C@@H]3O2)cc1OC` [39A], the CC50 in the series with KB cells is 0.56 µg/mL (≈ 1.91 µM). On the same count and under the same terms, to `COc1ccc(COC[C@H]2CN3C(=O)C[C@H]3O2)cc1OC` [39B, (3R,5R)-3-(3,4-Dimethoxybenzyloxymethyl)-4-oxa-1-azabicyclo[3,2,0] heptan-7-one] belongs 0.57 µg/mL (≈ 1.94 µM).

(Values after patent US5561126A, “4-oxa-1-azabicyclo [3,2,0] heptan-7-one derivatives as antitumor agents” (Taiho Pharmaceutical Co., Ltd., priority 1992, dated 1996).)
